# Assay results reported in US4265886A, “Spiroketalins and their applications” (Roecar Holdings (Netherlands Antilles (NV), priority 1978, dated 1981).
# Like-named read-outs stand apart in the source and are kept apart here.
# Tests used:
# [1] = water solubility
# [2] = system: Sprague-Dawley rats; test: 100 day feeding study, 0,1% in standard laboratory chow; type: in vivo, rat (male Sprague-Dawley); settings: for mortality: 100 day observation period
# From the text: (b) Standard laboratory chow was thoroughly mixed with 0,1% diosgenyl glucoside or hecogenyl glucoside and the mixtures were fed to groups of 20 young male Sprague-Dawley rats weighing approximately 150 g. […] Ten rats from each group were autopsied and the organs and some body tissues examined by macroscopic and microscopic techniques.
# [3] = system: haemolysis; settings: cited from earlier work
# [4] = system: yeast-induced hind paw oedema; test: yeast-induced acute paw oedema in rats; type: in vivo, rat; settings: 500-1000 mg/kg orally or 50-100 mg/kg intraperitoneally, 24 hours before 2% yeast suspension
# Experimental: The oral effectiveness of an anti-inflammatory agent is readily shown by administering it to animals (e.g. rats) either orally or parenterally before one of their hind paws is injected with a solution or suspension of an inflammation inducing substance such as kaolin, egg white, formaldehyde, carageenin or yeast. […] Distinct reductions in the acute oedema formation of between 10-40% were observed depending on the dose and route of administration. In order to achieve such reduction with the glucosides of diosgenin, hecogenin and tigogenin doses of 500-1000 mg/kg body mass orally or 50-100 mg/kg intraperitoneally had been administered, 24 hours before the animals were challenged with fresh 2% yeast suspension in physiological saline.
# [5] = system: erysipelas-induced arthritis (aortic thrombi); test: erysipelas-induced arthritis in the rat: aortic thrombi; type: in vivo, rat (male Wistar); settings: 3×10 mg/kg per day, 5× per week; for AORTIC THROMBI Present in % of rats: control 90; for AORTIC THROMBI Degree of severity: key 0=No change, 1=Very slight, 2=Slight to medium, 3=Medium to severe, 4=Severe changes, control 2,60 (± 1,35)
# Experimental: (§1) The investigation was carried out according to Schulze et al (17 in Betr. Path., 1975, 154, 1-26 and 27-51). Erysipelas arthritis is reproducible in nearly 100% of the rats given a single subcutaneous injection of E. insidiosa. Erysipelas arthritis always afflicts several joints with the same intensity in both major and minor limb joints, besides the coagulopathy and the pathological changes produced in the cardio-vascular system. Proliferating processes occur after 3 months in all surviving animals subjected to experimental erysipelas arthritis.
# (§2) In order to test the spiroketalins of this invention the following parameters of the erysepilas arthritis model were used to evaluate their activities:
# Fibrin-rich thrombi develop on aorta intima between the 6th and 11th day. The largest spread extended area can be observed around the 8th day.
# (§3) Male Wistar rats between 155-185 g were used for these trials. The animals, kept in single cages, received a standard rat diet (Ssniff R) and water ad libitum. Room temperature was kept at 22° C., and the relative humidity varied between 50-60%. Daily illumination lasted for 12 hours. The animals had been acclimatized for 10 days prior to the commencement of the investigation.
# (§4) An erysopelothrix insidiosa serotype B-strain T28 was used to challenge the animals and a single 2 ml dose (ca 100-200 million germs) was administered subcutaneously. The examined spiroketalins were suspended in sterile physiological saline and administered at the rate of 3×10 mg/kg per day. Treatment continued from the day of challenge, either to the end of the trial or the death of an animal, at the rate of 5×per week.
# The parameters for aorta thrombi have been evaluated according to the following key originally described by Schulz et al. Beitrag. Path., 154, 1-26 and 27-51, 1975.
# KEY FOR CLINICAL AORTA THROMBI FINDINGS
# 2=Slight to medium changes
# 3=Medium to severe changes
# [6] = system: erysipelas-induced arthritis (corneal lesions); test: erysipelas-induced arthritis in the rat: corneal lesions (opaquacy); type: in vivo, rat (male Wistar); settings: for CORNEAL LESIONS Degree of severity: 3×10 mg/kg per day, 5× per week, control 2,34; for CORNEAL LESIONS Present in % of rats, day 1: control 0; for CORNEAL LESIONS Present in % of rats, day 6 / CORNEAL LESIONS Present in % of rats, day 8 / CORNEAL LESIONS Present in % of rats, day 12 / CORNEAL LESIONS Present in % of rats, day 15 / CORNEAL LESIONS Present in % of rats, day 19 / CORNEAL LESIONS Present in % of rats, day 20: control 100
# Experimental: as §1, §2
# Inflammation opaquacy appears in the cornea around the 8th day.
# as §3, §4
# [7] = physchem; settings: water
# [8] = system: Sprague-Dawley rats; test: single oral dose animal toxicity, 14 day observation; type: in vivo, rat (male Sprague-Dawley); settings: single oral doses of 125,0; 312,5; 625,0 and 1250 mg/kg
# Experimental: Individually housed groups of ten male Sprague-Dawley rats were treated orally with single doses of hecogenin 3-β-D-glucoside or diosgenin 3β-D-glucoside. The poorly water soluble test substances were made up in an aqueous Tylose^R dispersion for homogeneity.
# A suitable concentration which allowed the administration of the relevant dose at the rate of 1,0 ml/100 g body weight was prepared immediately before use. Doses ranging from 125 mg/kg to 1250 mg/kg of the agents were tested. The observation period was 14 days after which the animals were sacrificed and a macroscopic examination of some tissues was carried out. Food and water was offered ad libitum.
# [9] = rats, rabbits and chickens; cited from earlier work
# [10] = system: rats, rabbits and chickens; settings: cited from earlier work
Structure (SMILES),"mortality ([2]; 0,1% in chow)",reduction in acute oedema formation [4],AORTIC THROMBI Present in % of rats [5],AORTIC THROMBI Degree of severity [5],CORNEAL LESIONS Degree of severity [6],"CORNEAL LESIONS Present in % of rats, day 1 [6]","CORNEAL LESIONS Present in % of rats, day 6 [6]","CORNEAL LESIONS Present in % of rats, day 8 [6]","CORNEAL LESIONS Present in % of rats, day 12 [6]","CORNEAL LESIONS Present in % of rats, day 15 [6]","CORNEAL LESIONS Present in % of rats, day 19 [6]","CORNEAL LESIONS Present in % of rats, day 20 [6]",also measured
"C[C@@H]1CC[C@@]2(OC1)O[C@H]1C[C@H]3[C@@H]4CC=C5C[C@@H](O[C@@H]6O[C@H](CO)[C@@H](O)[C@H](O)[C@H]6O)CC[C@]5(C)[C@H]4CC[C@]3(C)[C@H]1[C@@H]2C [Diosgenyl Glucoside, diosgenyl β-D-glucoside]",No mortality occurred,10-40%,44%,"1,33 (± 1,66)","1,05",0%,"85,7%",100%,100%,50%,25%,0%,"solubility ([1]; 25° C.): ~5 µg/mL; solubility ([1]; room temperature, colloidal solution): 5 µg/mL; drug-related pathological changes ([2]; rat, in vivo): No drug-related pathological changes were detected in any tissues; in vitro haemolytic effects ([3]; in vitro, reference (6)): without showing the usual in vitro haemolytic effects"
"C[C@@H]1CC[C@@]2(OC1)O[C@H]1C[C@H]3[C@@H]4CC[C@H]5C[C@@H](O[C@@H]6O[C@H](CO)[C@@H](O)[C@H](O)[C@H]6O)CC[C@]5(C)[C@H]4CC(=O)[C@]3(C)[C@H]1[C@@H]2C [Hecogenyl Glucoside, hecogenyl β-D-glucoside]",No mortality occurred,10-40%,50%,"1,38 (± 1,51)","0,89",0%,"87,5%",100%,100%,100%,20%,0%,"solubility [7]: ~5 µg/mL; drug-related pathological changes ([2]; 0,1% in chow, autopsy, macroscopic and microscopic): No drug-related pathological changes were detected in any tissues; tolerability [8]: well tolerated; in vitro haemolytic effects [3]: without showing the usual in vitro haemolytic effects"
"CC[C@H](CC[C@@H](C)[C@H]1CC[C@H]2[C@@H]3CC=C4C[C@@H](O[C@@H]5O[C@H](CO)[C@@H](O)[C@H](O)[C@H]5O)CC[C@]4(C)[C@H]3CC[C@]12C)C(C)C [Sitosteryl-β-D-Glucoside, reference compound]",–,–,70%,"2,00 (± 1,63)","1,20",20%,90%,100%,100%,17%,25%,0%,–
"C[C@@H]1CC[C@@]2(OC1)O[C@H]1C[C@H]3[C@@H]4CC[C@H]5C[C@@H](O[C@@H]6O[C@H](CO)[C@@H](O)[C@H](O)[C@H]6O)CC[C@]5(C)[C@H]4CC[C@]3(C)[C@H]1[C@@H]2C [Tigogenyl Glucoside, tigogenyl β-D-glucoside]",–,10-40%,–,–,–,–,–,–,–,–,–,–,–
C[C@@H]1CC[C@@]2(OC1)O[C@H]1C[C@H]3[C@@H]4CC=C5C[C@@H](O)CC[C@]5(C)[C@H]4CC[C@]3(C)[C@H]1[C@@H]2C [diosgenin],–,–,–,–,–,–,–,–,–,–,–,–,serum cholesterol levels [9]: lowers the serum cholesterol levels; toxicity [10]: non-toxic
